What was measured:
VAPB Drosophila mutants = assay: Evaluation of anti-ALS activity on VAPB Drosophila mutants (viability); format: in vivo; conditions: VAPB mutant flies; for adult flies observed from seeded larvae: 3 replicates for riluzole and vitamin D (45 larvae seeded), 8 for MN-001 (120 larvae seeded)
SOD deficient flies = format: in vivo, Drosophila; conditions: flies with interfered SOD gene, MN-001 tested at 0.08 mM, 0.8 mM, 8 mM (DMSO), FIG. 3
Description: Drosophila males will be collected and keep on fly food for 24 h. Then flies will be transferred to vials containing 3-mm paper filter disks saturated with 250 μl of 1% sucrose containing 2 mM paraquat or 1% sucrose, 2 mM paraquat and the tested compound. The vials will be stored at 25° C. in the dark, and flies are enumerated after 24 h.
Three replicas for each concentration will be performed in the same day and three replicas of the assay will be performed in different days.
The experiment includes the analysis of four compound concentrations (10, 100, 250 and 1000 μM) and will evaluate 360 flies for each concentration (8 replicates×3 days with 15 flies each one). Resistance to paraquat treatment will be indicative of positive activity of the compound tested. See, FIG. 2.
MN-001 was tested at concentrations of 0.08 mM, 0.8 mM, 8 mM (DMSO).

Molecule | adult flies observed from seeded larvae (VAPB Drosophila mutants) | survival (or survivorship) percentages after paraquat exposure (SOD deficient flies) | viability (VAPB Drosophila mutants; compared with DMSO)
Nc1nc2ccc(OC(F)(F)F)cc2s1 [riluzole] | No adult flies were observed |  | 
CCCc1c(SCCCOc2ccc(C(C)=O)c(OCCCC(=O)O)c2CCC)ccc(C(C)=O)c1O [MN-001] | 5 of 8 wells displayed adults but only 1 adult in each of them | increased this survival in a dose dependent manner | increase viability in a statistically significant manner
vitamin D | 1 adult was observed in one of the 3 replicates |  | 
vitamin E |  | increased this percentage | 
